Source: PubChem BioAssay AID330 (DTP/NCI, 2004)
“And” between values parts separate entries of the source, which are not always exact repeats. Equal values may be shown once. Toxic doses and inconclusive results are not listed. How the source made its calls: active means survival T/C of 150% or more; inactive means T/C below 125% in these data.

Test system: P388 leukemia ip, CD2F1 mice, survival T/C
Experiment: NCI In Vivo Anticancer Drug Screen. Data for tumor model P388 Leukemia (intraperitoneal) in CD2F1 (CDF1) mice
Conditions: endpoint: median survival time, higher = longer survival
Procedure, shortened: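 Mice carrying the transplanted tumor received test compound or vehicle. Survival was recorded in each group, and the value is the treated-group measurement divided by that of the vehicle-treated control group.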

[1] = dose: 60.0 mg/kg/injection, schedule: Q01DX005 (ip), vehicle: saline with Tween-80
[2] = dose: 120.0 mg/kg/injection, schedule: Q01DX005 (ip), vehicle: saline with Tween-80
[3] = dose: 240.0 mg/kg/injection, schedule: Q01DX005 (ip), vehicle: saline with Tween-80
[4] = dose: 25.0 mg/kg/injection, schedule: Q04DX003 (ip), vehicle: saline with Tween-80
[5] = dose: 100.0 mg/kg/injection, schedule: Q04DX003 (ip), vehicle: saline with Tween-80
[6] = dose: 25.0 mg/kg/injection, schedule: Q01DX009 (ip), vehicle: Klucel (hydroxypropylcellulose) (HPC)
[7] = dose: 50.0 mg/kg/injection, schedule: Q01DX009 (ip), vehicle: Klucel (hydroxypropylcellulose) (HPC)
[8] = dose: 50.0 mg/kg/injection, schedule: Q01DX009 (ip), vehicle: saline
[9] = dose: 50.0 mg/kg/injection, schedule: Q01DX009 (ip), vehicle: saline with Tween-80

Measured: T/C

O=c1c([N+](=O)[O-])c[nH]c2ccccc12
inactive: dose: 25.0 mg/kg/injection, schedule: Q01DX009 (ip), vehicle: distilled water + Tween-80 92 % of control | dose: 50.0 mg/kg/injection, schedule: Q01DX009 (ip), vehicle: distilled water + Tween-80 87 % of control | dose: 100.0 mg/kg/injection, schedule: Q01DX009 (ip), vehicle: distilled water + Tween-80 108 % of control | dose: 200.0 mg/kg/injection, schedule: Q01DX009 (ip), vehicle: distilled water + Tween-80 93 % of control

CC(C)=CCC1=C(C)C(=O)C(C)=C(C)C1=O
inactive: dose: 12.5 mg/kg/injection, schedule: Q01DX009 (ip), vehicle: distilled water + Tween-80 + alcohol 100 % of control | dose: 25.0 mg/kg/injection, schedule: Q01DX009 (ip), vehicle: distilled water + Tween-80 + alcohol 98 % of control | dose: 50.0 mg/kg/injection, schedule: Q01DX009 (ip), vehicle: distilled water + Tween-80 + alcohol 100 % of control | dose: 100.0 mg/kg/injection, schedule: Q01DX009 (ip), vehicle: distilled water + Tween-80 + alcohol 98 % of control | dose: 200.0 mg/kg/injection, schedule: Q01DX009 (ip), vehicle: distilled water + Tween-80 + alcohol 86 % of control

CCOc1c(N=Nc2ccccc2)c(C)nn1C(=S)S
inactive: dose: 60.0 mg/kg/injection, schedule: Q01DX005 (ip), vehicle: Klucel + Tween-80 101 % of control | dose: 120.0 mg/kg/injection, schedule: Q01DX005 (ip), vehicle: Klucel + Tween-80 101 % of control | dose: 240.0 mg/kg/injection, schedule: Q01DX005 (ip), vehicle: Klucel + Tween-80 100 % of control

C=C(C)CC1(C)C(=O)CCC1O (stereo not drawn)
inactive: [1] 104 % of control | [2] 102 % of control | [3] 106 % of control

COc1ccc(NC(=O)CCC(=O)Oc2ccccc2)cc1
inactive: dose: 100.0 mg/kg/injection, schedule: Q01DX009 (ip), vehicle: saline with Tween-80 100 % of control | dose: 400.0 mg/kg/injection, schedule: Q01DX009 (ip), vehicle: saline with Tween-80 94 % of control

CCCCCCCCCCC1OCN2CCCCC12 (stereo not drawn)
inactive: dose: 50.0 mg/kg/injection, schedule: Q01DX005 (ip), vehicle: saline 108 % of control | dose: 100.0 mg/kg/injection, schedule: Q01DX005 (ip), vehicle: saline 104 % of control | dose: 200.0 mg/kg/injection, schedule: Q01DX005 (ip), vehicle: saline 118 % of control

CC(C)=C/C(C)=N/Nc1ccc([N+](=O)[O-])cc1[N+](=O)[O-]
inactive: [4] 100 % of control | dose: 50.0 mg/kg/injection, schedule: Q04DX003 (ip), vehicle: saline with Tween-80 100 % of control | [5] 100 % of control

Cc1ccc2c(c1)C1(C)OC(C=CC1=O)O2 (stereo not drawn)
inactive: dose: 25.0 mg/kg/injection, schedule: Q04DX003 (ip), vehicle: Klucel (hydroxypropylcellulose) (HPC) 99 % of control and 119 % of control | dose: 50.0 mg/kg/injection, schedule: Q04DX003 (ip), vehicle: Klucel (hydroxypropylcellulose) (HPC) 98 % of control | dose: 100.0 mg/kg/injection, schedule: Q04DX003 (ip), vehicle: Klucel (hydroxypropylcellulose) (HPC) 123 % of control and 97 % of control | dose: 200.0 mg/kg/injection, schedule: Q04DX003 (ip), vehicle: Klucel (hydroxypropylcellulose) (HPC) 113 % of control

CC[C@H](CC[C@@H](C)[C@H]1CC[C@H]2[C@@H]3CC=C4C[C@@H](OC(C)=O)CC[C@]4(C)[C@H]3CC[C@]12C)C(C)C
inactive: dose: 6.25 mg/kg/injection, schedule: Q01DX009 (ip), vehicle: Klucel (hydroxypropylcellulose) (HPC) 99 % of control and 110 % of control | dose: 12.5 mg/kg/injection, schedule: Q01DX009 (ip), vehicle: Klucel (hydroxypropylcellulose) (HPC) 105 % of control and 107 % of control | [6] 104 % of control and 92 % of control | [7] 98 % of control and 105 % of control | dose: 75.0 mg/kg/injection, schedule: Q01DX009 (ip), vehicle: Klucel (hydroxypropylcellulose) (HPC) 100 % of control and 92 % of control

C=C1C2CCC3(CCC4C5(C)CCCC4(C=[N+](CCO)C5)C3C2)C1O (stereo not drawn)
inactive: [6] 94 % of control

COCCCN1C(=O)/C(=C/c2ccccn2)SC1=S
inactive: [8] 97 % of control | dose: 100.0 mg/kg/injection, schedule: Q01DX009 (ip), vehicle: saline 96 % of control | dose: 200.0 mg/kg/injection, schedule: Q01DX009 (ip), vehicle: saline 96 % of control

O=S1(=O)CN2C=CC=CC2=N1
inactive: dose: 6.25 mg/kg/injection, schedule: Q01DX009 (ip), vehicle: saline with Tween-80 106 % of control | dose: 12.5 mg/kg/injection, schedule: Q01DX009 (ip), vehicle: saline with Tween-80 104 % of control | dose: 25.0 mg/kg/injection, schedule: Q01DX009 (ip), vehicle: saline with Tween-80 105 % of control | [9] 105 % of control

COC(=O)C12CN(C)CC(C(=O)OC)(C1=O)C(c1ccccn1)N(C)C2c1ccccn1 (stereo not drawn)
inactive: [1] 100 % of control | [2] 98 % of control | [3] 98 % of control

Cc1cc(OC(=O)Nc2cc([N+](=O)[O-])ccc2C)c(Br)cc1Cl
inactive: dose: 12.5 mg/kg/injection, schedule: Q01DX009 (ip), vehicle: saline 98 % of control | dose: 25.0 mg/kg/injection, schedule: Q01DX009 (ip), vehicle: saline 93 % of control | [9] 117 % of control | [8] 100 % of control

Cc1ccc(S(=O)(=O)N/N=C/c2c(C)noc2C)cc1
inactive: [7] 101 % of control | dose: 100.0 mg/kg/injection, schedule: Q01DX009 (ip), vehicle: Klucel (hydroxypropylcellulose) (HPC) 95 % of control | dose: 200.0 mg/kg/injection, schedule: Q01DX009 (ip), vehicle: Klucel (hydroxypropylcellulose) (HPC) 95 % of control

CC(C)C1=CC(=O)C2=C(CCC3C4=C(CCC23C)C(=O)OC4)C1=O (stereo not drawn)
inactive: dose: 6.25 mg/kg/injection, schedule: Q01DX009 (ip), vehicle: DMSO 105 % of control | dose: 12.5 mg/kg/injection, schedule: Q01DX009 (ip), vehicle: DMSO 113 % of control | dose: 25.0 mg/kg/injection, schedule: Q01DX009 (ip), vehicle: DMSO 98 % of control

C[CH2][Sn]1([CH2]C)[O]C(=O)CCCCC(=O)[O]1
inactive: dose: 12.5 mg/kg/injection, schedule: Q04DX003 (ip), vehicle: saline 115 % of control

Cn1cccc1/C=N/N1CC(=O)N(c2ccccc2)CC1=O
inactive: dose: 50.0 mg/kg/injection, schedule: Q01DX005 (ip), vehicle: saline with Tween-80 108 % of control | dose: 100.0 mg/kg/injection, schedule: Q01DX005 (ip), vehicle: saline with Tween-80 100 % of control

COC(=O)C(CCC1CCCCN1)(c1ccccc1)c1ccccc1 (stereo not drawn)
active: [5] 150 % of control and 158 % of control
inactive: [4] 120 % of control | dose: 66.0 mg/kg/injection, schedule: Q04DX003 (ip), vehicle: saline with Tween-80 100 % of control

CSc1ncc(C=O)n1Cc1ccccc1
inactive: dose: 17.5 mg/kg/injection, schedule: Q01DX005 (ip), vehicle: Klucel (hydroxypropylcellulose) (HPC) 115 % of control | dose: 35.0 mg/kg/injection, schedule: Q01DX005 (ip), vehicle: Klucel (hydroxypropylcellulose) (HPC) 98 % of control | dose: 70.0 mg/kg/injection, schedule: Q01DX005 (ip), vehicle: Klucel (hydroxypropylcellulose) (HPC) 101 % of control

CSC1=NC=C(C#N)C2=NC(c3c(F)cccc3Cl)NN12 (stereo not drawn)
inactive: [1] 89 % of control | [2] 89 % of control | [3] 90 % of control

C=C(C)COc1ccc(C)cc1
inactive: dose: 25.0 mg/kg/injection, schedule: Q01DX009 (ip), vehicle: other 108 % of control | dose: 50.0 mg/kg/injection, schedule: Q01DX009 (ip), vehicle: other 104 % of control | dose: 100.0 mg/kg/injection, schedule: Q01DX009 (ip), vehicle: other 110 % of control

O=C(Nc1ccc(Cl)cc1)Nc1nnc2nc(C(C(=O)c3ccc(O)cc3O)c3nc4nnc(NC(=O)Nc5ccc(Cl)cc5)n4[nH]c3=O)c(=O)[nH]n12
inactive: [1] 103 % of control | [2] 95 % of control

COC(=O)/C=C(\Cl)C(=O)OC
inactive: dose: 0.62 mg/kg/injection, schedule: Q01DX009 (ip), vehicle: saline with Tween-80 101 % of control | dose: 1.25 mg/kg/injection, schedule: Q01DX009 (ip), vehicle: saline with Tween-80 101 % of control | dose: 2.5 mg/kg/injection, schedule: Q01DX009 (ip), vehicle: saline with Tween-80 105 % of control | dose: 5.0 mg/kg/injection, schedule: Q01DX009 (ip), vehicle: saline with Tween-80 102 % of control | dose: 10.0 mg/kg/injection, schedule: Q01DX009 (ip), vehicle: saline with Tween-80 105 % of control

CC1C2C=CC1C(c1c3ccc(=O)cc-3oc3cc(O)ccc13)C2C(=O)O (stereo not drawn)
inactive: [1] 99 % of control | [2] 100 % of control | [3] 101 % of control
